Experimental findings from patent US10981932B2, “Macrocyclic indole derivatives” (Bayer Aktiengesellschaft, priority 2016, dated 2021) are described below.

The subject of data set [1] is SUDHL10. The experiment in a line: Induction of cytotoxicity (CellTiter-Glo, 5 h), SUDHL10. (Cellular ATP, detected with luciferase, serves as a proxy for viable cell number.)
Procedure: Therefore, cytotoxicity assays were run in parallel in SUDHL5 and SUDHL10 cells.
The different cell lines were plated in culture medium (RPMI 1640 [GIBCO #22400-089]supplemented with 10% Fetal Bovine Serum) at a density of 3.300 cells in 30 μl/well in a sterile, solid black, flat bottom, polystyrene, TC-treated 384-well microplate (Corning #3571) using Multidrop Combi Reagent Dispenser. As a control, medium without cells was also added to the plate. Cells were incubated in a humidified incubator at 37° C. overnight. On the next day, the cells were treated with compounds (stock solution, 10 mM in DMSO) using the HP D300 Digital Dispenser in a concentration range of 3.3×10e-5 M (33 μM) to 5×10e-9 M (5 nM) in a single-dot curve with at least 16 dilutions and a DMSO concentration of 0.33%. Rim wells were excluded. The cells were incubated for 5 h hours in a humidified incubator at 37° C. After this incubation, 30 μl of CellTiter-Glo@ Luminescent Cell Viability reagent (Promega, G7573) was added to each well using the Multidrop Combi Reagent Dispenser, followed by 15 min incubation on a shaker at room temperature. Finally, luminescence was read at 0.1 ms, with a gain of 3000 using the PHERAstar FS microplate reader (BMG Labtech).
The Bella DRC Master Sheet was used to calculate IC50s, with fixed CI=0 and C0=1.
The subject of another data set is A2780. Briefly: Anti-proliferative effect (CellTiter-Glo, 72 h), A2780. The data set is classed as cell-based. As to conditions: A2780 cells, median, read-out: IC50 antiproliferation assay A2780 [M] (median). The method, boiled down: (§1)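 CellTiter-Glo luminescence readout of viability, taken on a time-zero plate at day 0 and on treated plates after 72 h incubation at 37 °C in a humidified incubator. Reagent incubation 10 min before reading.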

The next data set has as its system MV-4-11. Briefly: Anti-proliferative effect (CellTiter-Glo, 72 h), MV-4-11. Format: cell-based. The settings on record: MV-4-11 cells, median, read-out: IC50 antiproliferation assay MV-4-11 [M] (median). The method, boiled down:
as §1

For data set [2], the system named is SUDHL5. The experiment in a line: Anti-proliferative effect (CellTiter-Glo, 72 h), SUDHL5. The settings on record: SUDHL5 cells, antiproliferation, median, read-out: Antiproli SUDHL5 [M] (median). The data set is classed as cell-based. Put shortly:
as §1

A further data set has as its target MCL-1 (Homo sapiens, UniProt Q07820). Briefly: Protein-protein interaction assay MCL-1/Noxa BH3 peptide (MCL-1 assay), TR-FRET. Format: binding. The settings on record: MBP-MCL-1 / Noxa BH3-derived peptide, median. The method, boiled down:
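MBP-MCL-1 (1 nM final) was preincubated 10 min at 22 °C with compounds (11 concentrations, 0.1 nM–20 μM, duplicates) in Tris pH 7 buffer with NaCl, KF, Tween-20, DTT and BGG. After 1 h at 22 °C in the dark plus overnight at 4 °C, anti-MBP Eu-cryptate/streptavidin-XL665 TR-FRET was read; IC50 came from a 4-parameter fit.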

For data set [3], the system named is SUDHL5. The experiment in a line: Induction of cytotoxicity (CellTiter-Glo, 5 h), SUDHL5. The settings on record: read-out: Cytotox SUDHL5 [M] (median), SUDHL5 cells, cytotoxicity induction, CellTiter-Glo, median.
Data set [4] relates to SUDHL10. The experiment in a line: Induction of caspase-3/7 activity (Caspase-Glo 3/7), SUDHL10. The data set is classed as cell-based. The settings on record: caspase-3/7 induction, SUDHL10 cells, 3 h treatment, median. The method, boiled down:
(§2)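 Caspase-Glo 3/7 luminescence measured after 3 h compound exposure at 37 °C in SUDHL10 and SUDHL5 cells. EC50 values come from background-corrected signals, with curve bottom set to 1 and plateau set to maximal induction by the reference compound.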

The test system of data set [5] is SUDHL5. The experiment in a line: Induction of caspase-3/7 activity (Caspase-Glo 3/7), SUDHL5. The data set is classed as cell-based. The settings on record: caspase-3/7 induction, SUDHL5 cells, 3 h treatment; median. Put shortly: as §2
Setting [6] is: read-out: Cytotox SUDHL10 [M] (median), SUDHL10 cells, cytotoxicity induction, CellTiter-Glo, 5 h, median.
The mark [7] stands for this setting: Homo sapiens, SU-DHL10, 5 h, read-out: Cytotox SUDHL10 [M] (median), SUDHL10 cells, cytotoxicity induction, CellTiter-Glo, 5 h, median.
Where [8] appears, read: Homo sapiens, SU-DHL-5, 72 h, 72 h.
The mark [9] stands for this setting: read-out: Cytotox SUDHL10 [M] (median), SUDHL10 cells, cytotoxicity induction, CellTiter-Glo, 5 h incubation, median.

Structures can show the parent of a compound that is named as a salt. Where two headings read alike, the source gives them in different places.

The EC50 is the concentration needed to bring the measured effect to its halfway point. A low value points to higher potency in that assay.

Sequence of MCL-1 (Q07820 whole entry): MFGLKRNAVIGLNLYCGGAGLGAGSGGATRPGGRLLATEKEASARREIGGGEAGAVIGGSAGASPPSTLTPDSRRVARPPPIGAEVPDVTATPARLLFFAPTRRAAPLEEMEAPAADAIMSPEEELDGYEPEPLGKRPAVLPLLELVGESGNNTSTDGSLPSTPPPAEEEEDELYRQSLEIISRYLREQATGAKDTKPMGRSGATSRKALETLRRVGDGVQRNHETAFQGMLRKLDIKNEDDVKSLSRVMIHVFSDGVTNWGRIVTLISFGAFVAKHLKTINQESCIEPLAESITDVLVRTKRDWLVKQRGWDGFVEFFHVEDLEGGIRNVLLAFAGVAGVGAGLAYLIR

`Cc1ccc2c(CCCOc3cccc4cc(F)ccc34)c(C(=O)O)n3c2c1-c1c(nn(CCN2CCOCC2)c1C)COCCCC3` (single isomer, unassigned) [Example 293, (+)-7-{3-[(6-fluoronaphthalen-1-yl)oxy]propyl}-3,4-dimethyl-2-[2-(morpholin-4-yl)ethyl]-2,10,11,12,13,15-hexahydropyrazolo[4′,3′:9,10][1,6]oxazacycloundecino[8,7,6-hi]indole-8-carboxylic acid-N-ethylethanamine Salt]: the IC50 in the data set with SUDHL10 [1] (setting [6]) came to 9.88e-07 M; with A2780 (Homo sapiens, A2780, 72 h), 1.08e-05 M; in the data set on MV-4-11 it was 2.08e-06 M; in the data set with SUDHL5 [2] (72 h), 6.43e-07 M; against MCL-1, 0.000676 µM; with SUDHL5 [3] (5 h), 4.23e-07 M. The EC50 stood at 0.947 µM in the data set with SUDHL10 [4] and 0.309 µM in the data set on SUDHL5 [5].
In the case of `Cc1ccc2c(CCCOc3cccc4cc(F)ccc34)c(C(=O)O)n3c2c1-c1c(nn(CCN2CCOCC2)c1C)COCCCC3` (single isomer, unassigned) [Example 294, (−)-7-{3-[(6-fluoronaphthalen-1-yl)oxy]propyl}-3,4-dimethyl-2-[2-(morpholin-4-yl)ethyl]-2,10,11,12,13,15-hexahydropyrazolo[4′,3′:9,10][1,6]oxazacycloundecino[8,7,6-hi]indole-8-carboxylic acid-N-ethylethanamine Salt], the IC50 is 1.08e-05 M in the data set on SUDHL10 [1] (setting [6]); 1.88e-05 M with A2780; 1.53e-05 M in the data set on MV-4-11; 5.96e-06 M in the data set with SUDHL5 [2] (72 h); 0.00579 µM at MCL-1; 5.95e-06 M in the data set on SUDHL5 [3] (5 h). Moreover, the EC50 in the data set with SUDHL10 [4] stood at 10.8 µM; in the data set on SUDHL5 [5], 6.95 µM.
As to `Cc1c2c(nn1C)COCCCCn1c(C(=O)O)c(CCCOc3cccc4cc(Cl)ccc34)c3cccc-2c31` (single isomer, unassigned) [Example 296, (+)-7-{3-[(6-chloronaphthalen-1-yl)oxy]propyl}-2,3-dimethyl-2,10,11,12,13,15-hexahydropyrazolo[4′,3′:9,10][1,6]Oxazacycloundecino[8,7,6-hi]indole-8-carboxylic acid-N-ethylethanamine Salt], the IC50 was 1.43e-05 M in the data set on SUDHL10 [1] (setting [7]); 2.07e-05 M with A2780 (Homo sapiens, A2780, 72 h); 1.52e-05 M in the data set with MV-4-11 (Homo sapiens, MV4-11, 72 h); 5.2e-06 M in the data set with SUDHL5 [2] (setting [8]); 0.00331 µM against MCL-1; 5.31e-06 M in the data set with SUDHL5 [3] (5 h). For the same molecule, the EC50 is 18.7 µM in the data set on SUDHL10 [4] (Homo sapiens, SU-DHL10, 3 h) and 3.23 µM in the data set on SUDHL5 [5].
As for `Cc1c2c(nn1C)COCCCCn1c(C(=O)O)c(CCCOc3cccc4cc(Cl)ccc34)c3cccc-2c31` (single isomer, unassigned) [Example 297, (−)-7-{3-[(6-chloronaphthalen-1-yl)oxy]propyl}-2,3-dimethyl-2,10,11,12,13,15-hexahydropyrazolo[4′3′:9,10][1,6]oxazacycloundecino[8,7,6-hi]indole-8-carboxylic acid-N-ethylethanamine Salt], the IC50 in the data set with SUDHL10 [1] (setting [6]) came to 2.77e-05 M; in the data set with A2780 it was 1.33e-05 M; in the data set with MV-4-11 it was 1.9e-05 M; with SUDHL5 [2] (72 h) it was 5.16e-06 M; on MCL-1, 0.126 µM; in the data set on SUDHL5 [3] (5 h), 2.83e-05 M. Also, the EC50 in the data set with SUDHL10 [4] and with SUDHL5 [5] was greater than 33 µM in each case.
Regarding `CCc1nn(C)c2c1-c1cccc3c(CCCOc4cccc5c(F)cccc45)c(C(=O)O)n(c13)CCCCOC2` (single isomer, unassigned) [Example 299, 3-ethyl-7-{3-[(5-fluoronaphthalen-1-yl)oxy]propyl}-1-methyl-1,10,11,12,13,15-hexahydropyrazolo[4′,3′:9,10][1,6]oxazacycloundecino[8,7,6-hi]indole-8-carboxylic Acid], the IC50 is greater than 3.3e-05 M in the data set with SUDHL10 [1] (setting [7]); 2.32e-05 M with A2780 (Homo sapiens, A2780, 72 h); 2.63e-05 M in the data set on MV-4-11 (Homo sapiens, MV4-11, 72 h); 7.39e-06 M in the data set with SUDHL5 [2] (setting [8]); 0.166 µM against MCL-1; greater than 3.3e-05 M with SUDHL5 [3] (5 h). For the same molecule, the EC50 with SUDHL10 [4] (Homo sapiens, SU-DHL10, 3 h) was greater than 33 µM; in the data set on SUDHL5 [5], greater than 33 µM.
`CCc1nn(C)c2c1-c1cccc3c(CCCOc4cccc5c(F)cccc45)c(C(=O)O)n(c13)CCCCOC2` (single isomer, unassigned) [Example 300, 3-ethyl-7-{3-[(5-fluoronaphthalen-1-yl)oxy]propyl}-1-methyl-1,10,11,12,13,15-hexahydropyrazolo[4′3′:9,10][1,6]oxazacycloundecino[8,7,6-hi]indole-Carboxylic Acid]: the IC50 was 2.25e-05 M in the data set with SUDHL10 [1] (setting [6]); greater than 3.3e-05 M in the data set on A2780; 2.15e-05 M with MV-4-11; 5.13e-06 M in the data set with SUDHL5 [2] (72 h); 0.00127 µM at MCL-1; 5.8e-06 M with SUDHL5 [3] (5 h). Further, the EC50 stood at 20.7 µM with SUDHL10 [4] and 3.93 µM with SUDHL5 [5].
For the molecule `Cn1nc2c(c1CN1CCOCC1)-c1cccc3c(CCCOc4cccc5ccccc45)c(C(=O)O)n(c13)CCCCOC2` (single isomer, unassigned; enantiomer 1) [Example 079, 2-methyl-3-(morpholin-4-ylmethyl)-7-[3-(naphthalen-1-yloxy)propyl]-2,10,11,12,13,15-hexahydropyrazolo[4′,3′:9,10][1,6]oxazacycloundecino[8,7,6-hi]indole-8-carboxylic acid-N-ethylethanamine Salt (Enantiomer 1)], the IC50 amounted to 8.83e-06 M with SUDHL10 [1] (setting [9]); 1.66e-05 M in the data set with A2780 (Homo sapiens, A2780, 72 h); 2.37e-06 M in the data set with MV-4-11; 6.7e-06 M in the data set on SUDHL5 [2] (72 h incubation); 0.00325 µM against MCL-1; 4.24e-06 M with SUDHL5 [3] (5 h incubation). For the same molecule, the EC50 in the data set on SUDHL10 [4] came to 9.85 µM; with SUDHL5 [5] it was 3.85 µM.
Take `COCCn1nc(C2CC2)c2c1COCCCCn1c(C(=O)O)c(CCCOc3cccc4c3CCCC4)c3cccc-2c31` (single isomer, unassigned; enantiomer 1) [Example 165, 3-Cyclopropyl-1-(2-methoxyethyl)-7-[3-(5,6,7,8-tetrahydronaphthalen-1-yloxy)propyl]-1,10,11,12,13,15-hexahydropyrazolo[4′,3′:9,10][1,6]oxazacycloundecino[8,7,6-hi]indole-8-carboxylic acid-N-ethylethanamine Salt (Enantiomer 1)]: the IC50 in the data set with SUDHL10 [1] (Homo sapiens, SU-DHL10, 5 h, read-out: Cytotox SUDHL10 [M] (median), SUDHL10 cells, cytotoxicity induction, CellTiter-Glo, 5 h incubation, median) was 2.37e-05 M; with A2780 (Homo sapiens, A2780, 72 h), 2.15e-05 M; in the data set with MV-4-11 it was 8.15e-06 M; with SUDHL5 [2] (Homo sapiens, SU-DHL-5, 72 h, 72 h incubation), 1.13e-05 M; on MCL-1, 0.00289 µM; with SUDHL5 [3] (5 h incubation), 5.71e-06 M. The EC50 in the data set on SUDHL10 [4] (Homo sapiens, SU-DHL10, 3 h) worked out at 19.1 µM; in the data set with SUDHL5 [5], 5.25 µM.
Consider `CCc1c2c(nn1CCN1CCOCC1)COCCCCn1c(C(=O)O)c(CCCOc3cccc4ccccc34)c3ccc(C)c-2c31` (single isomer, unassigned; enantiomer 1) [Example 205, 3-ethyl-4-methyl-[2-(2-(morpholin-4-yl)ethyl]-7-[3-(naphthalen-1-yloxy)propyl]-2,10,11,12,13,15-hexahydropyrazolo[4′3′:9,10][1,6]oxazacycloundecino[8,7,6-hi]indole-8-carboxylic Acid (Enantiomer 1)], for which the IC50 amounted to 2.92e-06 M in the data set with SUDHL10 [1] (setting [9]); 1.03e-05 M with A2780; 2.83e-06 M with MV-4-11; 2e-06 M in the data set on SUDHL5 [2] (72 h incubation); 0.00165 µM against MCL-1; 1.38e-06 M in the data set with SUDHL5 [3] (5 h incubation). The results for the EC50 with SUDHL10 [4] and with SUDHL5 [5] were 2.49 µM and 1.33 µM, respectively.
